Among the test systems are CCRF-CEM leukemia; RPMI-8226 leukemia; UACC-62 melanoma; SK-MEL-28 melanoma; SF-295 CNS; OVCAR-3 ovarian; SK-MEL-2 melanoma; SNB-19 CNS; SK-OV-3 ovarian; MALME-3M melanoma.
Common to all, as to assay: growth of human tumour cells (NCI), 48 h

Molecules are shown by their SMILES.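 Five concentrations, 48 hours, 96-well plates. At the GI50, growth is halved. TGI marks complete inhibition of growth.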

For `COc1cc(/C=C2\CC3C4CC=C5C[C@@H](N6CCCC6)CC[C@]5(C)C4CC[C@]3(C)[C@H]2OC(C)=O)ccc1OCCCn1ccnc1` (some centres undefined), the GI50 was 1220 nM in the assay on CCRF-CEM leukemia; 343 nM with RPMI-8226 leukemia; 630 nM in the assay with UACC-62 melanoma; 157 nM in the assay on SK-MEL-28 melanoma; 1210 nM with SF-295 CNS; 275 nM in the assay with OVCAR-3 ovarian. Moreover, the results for the GI50 with SK-MEL-2 melanoma and with SNB-19 CNS were 7.54 µM and 1.46 µM, respectively. Also, the TGI in the assay with CCRF-CEM leukemia is 3.91 µM; with RPMI-8226 leukemia it was over 14 µM; in the assay on UACC-62 melanoma, 2.26 µM; in the assay on SK-MEL-28 melanoma it was over 50 µM; in the assay with SF-295 CNS, 3.46 µM; in the assay with OVCAR-3 ovarian it was 0.777 µM. Besides, the TGI in the assay on SK-MEL-2 melanoma and with SNB-19 CNS was over 50 µM each time.

On to `O=[N+]([O-])C(=C1c2ccccc2-c2ccccc21)[N+](=O)[O-]`, for which the TGI in the assay on CCRF-CEM leukemia is over 100 µM; with RPMI-8226 leukemia, over 100 µM; in the assay with UACC-62 melanoma, over 100 µM; with SK-MEL-28 melanoma, over 100 µM; with SF-295 CNS it was over 10 µM; in the assay on OVCAR-3 ovarian, over 100 µM. The TGI in the assay on SK-MEL-2 melanoma and with SNB-19 CNS was over 100 µM each time.

In the case of `Cc1ncc2c(n1)CCC1=C2OS(=O)(=O)CC1N(C)C` (centres undefined), the TGI with CCRF-CEM leukemia, with RPMI-8226 leukemia, in the assay with SK-OV-3 ovarian, in the assay with UACC-62 melanoma, in the assay on SK-MEL-28 melanoma and with OVCAR-3 ovarian was over 100 µM in each case. The molecule also yielded a TGI in the assay on SNB-19 CNS of over 100 µM.

For the molecule `COC(=O)C(C(=O)C(=O)Nc1nc2ccc(OC)cc2s1)c1cnc2ccccc2n1` (centres undefined), the TGI with RPMI-8226 leukemia, in the assay on SK-OV-3 ovarian, in the assay with UACC-62 melanoma, with SK-MEL-28 melanoma, in the assay with MALME-3M melanoma and in the assay on SF-295 CNS was over 100 µM each time. In addition, the TGI in the assay on OVCAR-3 ovarian and in the assay with SNB-19 CNS was over 100 µM throughout.

For the molecule `COc1cc(C(C)c2cc3c(cc2OCCCCCOc2cc4c(cc2C(C)c2cc(OC)c(OC)c(OC)c2)OCO4)OCO3)cc(OC)c1OC` (centres undefined), the TGI in the assay on CCRF-CEM leukemia, with RPMI-8226 leukemia, in the assay on UACC-62 melanoma, with SK-MEL-28 melanoma, in the assay on MALME-3M melanoma and in the assay on SF-295 CNS was over 100 µM each time. Moreover, the TGI in the assay with OVCAR-3 ovarian, in the assay on SK-MEL-2 melanoma and in the assay on SNB-19 CNS was over 100 µM throughout.

For the molecule `O=c1oc2cc(O)ccc2cc1-c1nc2ccccc2o1`, the TGI with CCRF-CEM leukemia is over 100 µM; with RPMI-8226 leukemia it was 75.8 µM; in the assay with UACC-62 melanoma, over 100 µM; with SK-MEL-28 melanoma it was over 100 µM; in the assay on MALME-3M melanoma it was over 100 µM; in the assay with SF-295 CNS, over 100 µM. For the same molecule, the TGI was 61.8 µM in the assay with OVCAR-3 ovarian, over 100 µM in the assay with SK-MEL-2 melanoma and over 100 µM in the assay with SNB-19 CNS.

For `COc1ccc(C2=NC(CO)[C@H](c3ccccc3)O2)cc1OC` (some centres undefined), the TGI in the assay with CCRF-CEM leukemia, with SK-OV-3 ovarian, in the assay with UACC-62 melanoma, in the assay with MALME-3M melanoma, in the assay with SF-295 CNS and in the assay on OVCAR-3 ovarian was over 100 µM throughout. Further, the TGI in the assay on SK-MEL-2 melanoma and with SNB-19 CNS was over 100 µM in each case.

With `Cc1c(C(=O)Nc2ccc(Oc3ccnc4cc(OCC(C)(C)O)ccc34)c(F)c2)c(=O)n(-c2ccccc2)n1C`, the results for the GI50 in the assay on SK-OV-3 ovarian, in the assay with SF-295 CNS and with SNB-19 CNS were 6.46 µM, 782 nM and 7.23 µM, respectively. The TGI in the assay on SK-OV-3 ovarian, in the assay on SF-295 CNS and in the assay on SNB-19 CNS was over 100 µM in each case.

In the case of `Cc1ccc(-c2csc3ncnc(Nc4cccc(O)c4)c23)cc1`, the GI50 in the assay on CCRF-CEM leukemia was 21000 nM; in the assay with RPMI-8226 leukemia, 14500 nM; in the assay with SK-OV-3 ovarian it was 38.6 µM; in the assay with UACC-62 melanoma it was 28000 nM; with SK-MEL-28 melanoma it was 43100 nM; with SF-295 CNS, 2130 nM. Further, the GI50 in the assay with OVCAR-3 ovarian was 22300 nM; with SK-MEL-2 melanoma, 22.4 µM; in the assay on SNB-19 CNS, 50.7 µM. Also, the TGI in the assay with CCRF-CEM leukemia is 91.1 µM; in the assay with RPMI-8226 leukemia, 37 µM; in the assay on SK-OV-3 ovarian, over 100 µM; in the assay on UACC-62 melanoma it was 73 µM; with SK-MEL-28 melanoma it was over 100 µM; in the assay with SF-295 CNS it was 24.7 µM. The values for the TGI with OVCAR-3 ovarian, in the assay with SK-MEL-2 melanoma and with SNB-19 CNS were 50.4 µM, 62.4 µM and over 100 µM, respectively.

With `CN(C)Cc1nsc(N(C)C)n1`, the TGI in the assay with RPMI-8226 leukemia, with SK-OV-3 ovarian, in the assay on UACC-62 melanoma, with SK-MEL-28 melanoma, with MALME-3M melanoma and in the assay with SF-295 CNS was over 100 µM throughout. Also, the TGI in the assay with OVCAR-3 ovarian, in the assay with SK-MEL-2 melanoma and in the assay on SNB-19 CNS was over 100 µM in each case.

Take `CCCCCCCCCCCCNCCCc1ccccc1`: the GI50 with CCRF-CEM leukemia is 2150 nM; in the assay with RPMI-8226 leukemia it was 2090 nM; in the assay on SK-OV-3 ovarian, 2.37 µM; with UACC-62 melanoma, 1760 nM; in the assay on SK-MEL-28 melanoma, 1720 nM; in the assay on MALME-3M melanoma it was 1970 nM. Besides, the GI50 in the assay on SF-295 CNS was 1930 nM; in the assay on OVCAR-3 ovarian it was 1790 nM; in the assay with SNB-19 CNS it was 2.07 µM. The TGI with CCRF-CEM leukemia worked out at 5.32 µM; in the assay with RPMI-8226 leukemia, 4.41 µM; in the assay with SK-OV-3 ovarian, 5.37 µM; in the assay with UACC-62 melanoma it was 3.29 µM; with SK-MEL-28 melanoma, 3.23 µM; in the assay with MALME-3M melanoma it was 3.64 µM. For the same molecule, the TGI with SF-295 CNS is 3.62 µM; in the assay with OVCAR-3 ovarian it was 3.18 µM; in the assay on SNB-19 CNS it was 5.35 µM.

Turning to `CCOC(=O)C(c1ccsc1)P(=O)(OCC)OCC` (centres undefined), the TGI in the assay on RPMI-8226 leukemia was over 100 µM; in the assay on SK-OV-3 ovarian it was 77.2 µM; with UACC-62 melanoma, 23.9 µM; with SK-MEL-28 melanoma it was 32.4 µM; in the assay with MALME-3M melanoma, 60.8 µM; in the assay on SF-295 CNS, 34 µM. Besides, the TGI turned out to be 26.9 µM in the assay with OVCAR-3 ovarian, 39.9 µM in the assay with SK-MEL-2 melanoma and 44.4 µM in the assay with SNB-19 CNS.

`O=C(O)CC(CC(=O)O)n1cccc1`: the TGI with CCRF-CEM leukemia, with RPMI-8226 leukemia, in the assay with SK-OV-3 ovarian, with UACC-62 melanoma, in the assay on SK-MEL-28 melanoma and with SF-295 CNS was over 100 µM throughout. In addition, the TGI in the assay with OVCAR-3 ovarian, with SK-MEL-2 melanoma and with SNB-19 CNS was over 100 µM each time.

These data come from PubChem BioAssay (NCI).
